Earlier results as cited in article PMC8670146 (Journal of Pharmaceutical and Biomedical Analysis, 2021).

Biological target: SARS-CoV-2 3CLpro (Severe acute respiratory syndrome coronavirus 2, UniProt P0DTD1)
Settings: previous study

SMILES	in vitro 3CLpro inhibition activity
O=C(O)[C@H]1O[C@@H](Oc2cc3oc(-c4ccccc4)cc(=O)c3c(O)c2O)[C@H](O)[C@@H](O)[C@@H]1O [compound 1, Baicalin]	showed in vitro 3CLpro inhibition activity
O=c1cc(-c2ccccc2)oc2cc(O)c(O)c(O)c12 [compound 2, Baicalein]	showed in vitro 3CLpro inhibition activity
